Results reported in paper PMC11002875, “Linking triphenylphosphonium cation to a bicyclic hydroquinone improves their antiplatelet effect via the regulation of mitochondrial function” (Redox Biology, 2024).
Like-named read-outs stand apart in the source and are kept apart here.

Experiments:
Type in all cases: cell-based, Human
Washed platelets [1] = assay: Mitochondrial membrane potential (TMRM); conditions: compounds 1, 5 and 10 μM, 20 min
Procedure: (§1) Human platelet purification. The blood sample was obtained from voluntary donors (10 days without antiplatelet medication) who agreed to participate after signing informed consent (Scientific Ethics Committee of the University of Talca N° 04–2022). Briefly, blood anticoagulated with acid-citrate-dextrose (ACD) was obtained in a 4:1 v/v ratio. The sample was centrifuged for 12 min at 250 g to obtain platelet-rich plasma (PRP). Subsequently, the PRP was centrifuged for 8 min at 900 g to obtain the platelet pellet. The plasma supernatant was removed, and the platelets were resuspended in Tyrodes buffer without calcium plus ACD in a ratio of 5:1 v/v. The platelets were centrifuged once more for 8 min at 900 g and the pellet was resuspended in Tyrodes buffer without calcium. Finally, the platelets were counted (Mindray BC-3000 Plus hematology counter, Japan), adjusted to the desired concentration, and used within 3 h.
Mitochondrial membrane potential (ΔΨm). Washed platelets (50 × 10^6 platelets/mL) were labeled with a 100 nM tetramethylrhodamine methyl ester (TMRM) probe and incubated with compounds (1, 5 and 10 μM) for 20 min at 37 °C. The sample was acquired in the BD Facs Lyric flow cytometer (BD Biosciences, USA). Representative dot plots are available in Supplementary Figs. 12, 24, and 25. Carbonyl cyanide 4-(trifluoromethoxy) phenylhydrazone (FCCP) 1 μM was used as a control for decreasing the mitochondrial membrane potential.

platelet-rich plasma [2] = assay: Platelet aggregation in platelet-rich plasma; conditions: collagen 2 μg/mL; PRP
Procedure: (§2) Platelet aggregation in platelet-rich plasma. The blood sample was obtained from voluntary donors (10 days without antiplatelet medication) who agreed to participate after signing informed consent (Scientific Ethics Committee of the University of Talca N° 04–2022). Venous blood was collected by phlebotomy into 3.2% sodium citrate tubes. The tubes were centrifuged at 250 g for 12 min to obtain PRP. After reserving the PRP, the tubes were centrifuged again at 900 g for 10 min to obtain platelet-poor plasma (PPP). For the aggregation reaction, PRP was adjusted to 200-250 × 10^6 platelets/mL with PPP [[63], [64], [65]]. Platelet counting was performed in a counter (Mindray BC-3000 Plus hematology counter, Japan). The samples were preincubated with the compounds under study for 5 min at 37 °C in the aggregometer (Agg RAM- Helena Biosciences). Aggregation was initiated with collagen 2 μg/mL and the reaction was evaluated for 5 min at 37 °C in shaking at 1000 rpm.

Washed platelets [3] = assay: Cellular apoptosis (externalization of phosphatidylserine, annexin V); conditions: 1, 2, 5, 10 and 20 μM; 15 min
Procedure: as §1
Cellular apoptosis (externalization of phosphatidylserine). Washed platelets (200-250 × 10^6 platelets/mL) were incubated with the NP4 compound (1, 2, 5, 10 and 20 μM) for 15 min at 37 °C. Then 15 μL of the reaction was mixed with 25 μL of annexin V binding buffer (1x) and labeled with 2 μL of annexin V FITC (BD Pharmingen, FITC Annexin V Apoptosis Detection Kit I). […]

Washed platelets [4] = assay: Platelet aggregation in washed platelets (aggregometer); conditions: for IC50: Homo sapiens, Platelet
Procedure: as §1
Platelet aggregation. Washed platelets (200-250 × 10^6 platelets/mL) were preincubated with 2 mM CaCl2 and then with the compounds under study for 5 min at 37 °C in the aggregometer (Agg RAM- Helena Biosciences). Aggregation was initiated with the agonists: collagen 2 μg/mL; convulxin 20 ng/mL; TRAP-6 (Thrombin receptor activator peptide 6) 5 μM; PMA (Phorbol myristate acetate) 100 nM or arachidonic acid 250 μg/mL. The aggregation curve was evaluated for 5 min at 37 °C in shaking at 1000 rpm.

Washed platelets [5] = assay: Cellular cytotoxicity by release of lactate dehydrogenase (LDH); conditions: Supplementary Fig. 1
Procedure: as §1
Cellular cytotoxicity by the release of lactate dehydrogenase (LDH). Washed platelets (200-250 × 10^6 platelets/mL) were incubated with the compounds under study or vehicle for 15 min at 37 °C. Then, the platelets were centrifuged at 900 g for 8 min to collect the supernatant. […] The absorbance was analyzed at 490 nm (Microplate Reader Thermo Scientific Multiskan Go, Finland).

Washed platelets [6] = assay: Intraplatelet (cytosolic) ROS levels (DHE); conditions: compounds 1, 5 and 10 μM, 10 min
Procedure: as §1
Intraplatelet ROS levels. Washed platelets (50 × 10^6 platelets/mL) were labeled with the dihydroethidium (DHE) probe 10 μM and incubated for 20 min at 37 °C protected from light. After, compounds (1, 5, and 10 μM) were added to the platelets and incubated for 10 min at 37 °C. The sample was acquired in the BD Facs Lyric flow cytometer (BD Biosciences, USA). Representative dot plots are available in Supplementary Figs. 18 and 27. As a positive control for ROS, antimycin A 20 μM was used.

platelet-rich plasma [7] = assay: Platelet activation markers in PRP (flow cytometry); conditions: collagen 2 μg/mL
Procedure: as §2
Platelet activation markers. […] Aliquots of the reaction were then collected and labeled separately with human antibodies (BD Biosciences, San José, CA, USA) for P-selectin, CD63, activated GPIIb/IIIa (PAC-1), and fibrinogen to assess the levels of each marker on the platelet membrane. The sample was acquired using the BD Facs Lyric flow cytometer (BD Biosciences, USA). […]

Cc1c(C)c(O)c2c(c1O)C(=O)C(CCCC[P+](c1ccccc1)(c1ccccc1)c1ccccc1)=CC2(C)C.[Br-] [NP4, (4-(5,8-dihydroxy-4,4,6,7-tetramethyl-1-oxo-1,4-dihydronaphthalen-2-yl)butyl)triphenyl phosphonium bromide]
Mitochondrial membrane potential (ΔΨm) (Washed platelets [1]): significantly decrease | Platelet aggregation in platelet-rich plasma (platelet-rich plasma [2]): significant decrease | Apoptosis (phosphatidylserine externalization) (Washed platelets [3]): none of the concentrations evaluated for NP4 showed significant effects | IC50 (Washed platelets [4]; read-out: IC50 for platelet aggregation, Convulxin): 4.45 ± 0.65 µM | IC50 (Washed platelets [4]; PMA 100 nM, washed platelets, read-out: IC50 for platelet aggregation, PMA): > 20 µM | IC50 (Washed platelets [4]; TRAP-6 5 μM, washed platelets, read-out: IC50 for platelet aggregation, TRAP-6): 7.4 ± 0.82 µM | IC50 (Washed platelets [4]; arachidonic acid 250 μg/mL, washed platelets, read-out: IC50 for platelet aggregation, Arachidonic Acid): > 20 µM | IC50 (Washed platelets [4]; collagen 2 μg/mL, washed platelets, read-out: IC50 for platelet aggregation, Collagen): 2.62 ± 0.91 µM | Effect on platelet aggregation vs vehicle (Washed platelets [4]; all tested concentrations, arachidonic acid 250 μg/mL): None of the NP4 concentrations showed any effect | Effect on platelet aggregation vs vehicle (Washed platelets [4]; compound 2 μM, collagen 2 μg/mL): significant effect | Effect on platelet aggregation vs vehicle (Washed platelets [4]; compound 5 μM, Convulxin 20 ng/mL): had an effect | Effect on platelet aggregation vs vehicle (Washed platelets [4]; compound 5 μM, TRAP-6 5 μM): had an effect | Effect on platelet aggregation vs vehicle (Washed platelets [4]; compound 5 μM, collagen 2 μg/mL): had an effect | Effect on platelet aggregation vs vehicle (Washed platelets [4]; compound 10 μM, Convulxin 20 ng/mL): significantly decreases | Effect on platelet aggregation vs vehicle (Washed platelets [4]; compound 10 μM, PMA 100 nM): significantly decreases | Effect on platelet aggregation vs vehicle (Washed platelets [4]; compound 10 μM, TRAP-6 5 μM): significantly decreases | Effect on platelet aggregation vs vehicle (Washed platelets [4]; compound 10 μM, collagen 2 μg/mL): significantly decreases | Safe concentrations (LDH release) (Washed platelets [5]): below 10 μM | Cytosolic total ROS levels (Washed platelets [6]): neither NP4 nor NH4 significantly affected | Bound fibrinogen in platelet-rich plasma (platelet-rich plasma [7]): significant decrease | P-selectin exposure in platelet-rich plasma (platelet-rich plasma [7]): significant decrease
